The source of these data is article PMC12693327, “SERAAK2 as a Serotonin Receptor Ligand: Structural and Pharmacological In Vitro and In Vivo Evaluation” (Molecules, 2025).

One data set has as its target T1, CYP3A4 (Homo sapiens, UniProt P08684).
T1 construct: purchased Promega
As to the kind of experiment: CYP3A4 luminescent luciferase-based assay (Glo kit). Format: in vitro ADME. Conditions: mean ± SEM, two experiments, n = 3 each, read-out: CYP3A4 Activity Inhibition, Evaluated at the Concentration of 10 µM [% of Inhibition ± SEM]. The method, then:
The effect of SERAAK2 on the activity of the cytochrome P450 isoforms CYP3A4 and CYP2D6 was tested using commercial luminescence assays (Glo kits bought from Promega, Medison, WI, USA). The experiment was performed twice with triplicate samples, following the manufacturer’s guidelines and established procedures.

The nature of data set [1]: PAMPA membrane permeability. Conditions: 100 µM in PBS pH 7.4, 5 h. Format: in vitro ADME. The method, then:
In this study, PAMPA was employed to evaluate the passive diffusion of SERAAK2 through a lipid-infused artificial membrane.
The membrane permeability assay was conducted employing the pre-coated PAMPA Plate System Gentest from Corning (Tewksbury, MA, USA), following the manufacturer’s provided instructions. SERAAK2, along with reference compounds, were prepared in PBS buffer at a pH of 7.4 to reach a final concentration of 100 µM, and these solutions were loaded onto the donor plate of the 96-well system. […] The permeability coefficient (Pe, expressed in cm/s) was subsequently derived by applying the calculation formula supplied by the manufacturer of the PAMPA system.

In data set [2] the test system is mice. The data set is described as follows: Spontaneous locomotor activity. Particulars: 60 min before test. It counts as in vivo. The method, then:
(§1) The investigated compound (SER2AAK2) was bought from Enamine (purity over 95%) and in all tests was administered intraperitoneally (i.p.), spread in a drop of Tween 80, and diluted with an aqueous solution of 0.5% methylcellulose (tylose) and injected 60 min before the tests in a volume of 10 mL/kg. Control groups received tylose injections of the same volume and via the same route of administration.
Locomotor activity of the mice was assessed using the Opto-Varimex-4 Auto-Track system (Columbus Instruments, OH, USA). Each mouse was placed individually in a testing cage for 25 min—5 min for acclimatization, followed by 20 min of activity recording. (6a) The total distance traveled (in centimeters) was measured. Cages were cleaned with 10% ethanol between sessions.

Data set [3] deals with mice. The data set is described as follows: Motor coordination, rotarod test. It counts as in vivo. Conditions: for Motor coordination (rotarod, chimney): rotarod and chimney. As for the experimental part:
as §1
The effects of the SER2AAK2 compound were also measured in the rotarod and chimney tests. In the rotarod test, mice were evaluated for their ability to maintain balance on a constantly rotating rod (18 rpm) for 1 min. The chimney test involved placing a mouse in a horizontal polymer tube (3 cm diameter, 25 cm length). Once the mouse reached the far end, the tube was positioned vertically, requiring the animal to climb backwards to exit. Right motor coordination was defined as exiting the chimney within 60 s. Prior to testing, mice underwent a 3-day training. Only those animals that were able to stay on the rotating rod or leave the chimney within the required time were included in the study.

Data set [4] deals with mice. The data set is described as follows: Elevated plus maze (EPM) test. It counts as in vivo. The method, then:
as §1
Anxiety behaviors were measured using the EPM test according to the Lister method. The apparatus consisted of four black-painted arms arranged in a plus-shaped configuration with a central platform (5 × 5 cm). Two opposing arms were open (30 × 5 cm), while the other two were enclosed (30 × 5 × 15 cm). The maze was elevated 38.5 cm above the floor and illuminated with dim, diffuse red light. Experiments were conducted in a quiet, dark room. […] The following parameters were recorded: time spent in the open arms, number of entries into the open arms, and total number of entries into both types of arms.

Data set [5] has as its system mice. The data set is described as follows: Forced swim test (FST). Format: in vivo. Conditions: 7.5 mg/kg i.p., 60 min before test. As for the experimental part:
as §1
The study was carried out using the test proposed by R. Porsolt. The method is based on the observation of an animal forced to swim in a confined space from which there is no escape. After an initial period of vigorous attempts to get out, the animal finally gives up on escaping. The test consists of immersing the mouse individually in a cylindrical beaker (diameter 10 cm, height 25 cm) filled with water (at a temperature of 23–25 °C) at a height of 10 cm for 6 min. The immobility time was measured during the final 4 min of the test (between 2 and 6 min).

For data set [6], the target named is serotonin 5-HT2A receptor. The arrangement: method as in PMID 38619283. Conditions: cited from earlier work.

“Also recorded” adds a separate entry of the source.

T1 sequence (P08684 whole entry): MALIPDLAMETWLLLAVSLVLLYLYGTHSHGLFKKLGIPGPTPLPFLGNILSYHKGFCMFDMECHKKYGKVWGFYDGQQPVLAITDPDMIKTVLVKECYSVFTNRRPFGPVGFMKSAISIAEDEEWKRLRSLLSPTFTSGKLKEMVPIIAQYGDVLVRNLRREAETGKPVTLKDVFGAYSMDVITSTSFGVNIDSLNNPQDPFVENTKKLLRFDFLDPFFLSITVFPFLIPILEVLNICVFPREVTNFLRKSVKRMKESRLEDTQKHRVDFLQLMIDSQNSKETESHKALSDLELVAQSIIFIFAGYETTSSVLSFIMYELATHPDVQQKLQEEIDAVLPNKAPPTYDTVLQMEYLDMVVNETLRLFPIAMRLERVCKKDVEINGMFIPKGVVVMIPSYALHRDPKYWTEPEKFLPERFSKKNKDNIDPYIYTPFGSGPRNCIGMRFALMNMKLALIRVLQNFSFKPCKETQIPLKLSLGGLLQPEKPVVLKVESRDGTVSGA

Turning to `OC(CNCCc1c[nH]c2ccccc12)COc1ccc(Oc2ccccc2)cc1` (stereo not drawn) [SERAAK2], the inhibition at 10 µM at CYP3A4 was found to be 0%. Besides, the “Pe ± SD” value in data set [1] was found to be 1.1 ×10⁻⁶ cm/s. Also, in data set [1] (read-out: Pe ± SD), the Papp at 5 h, 100 µM was 1.1 ± 0.35 ×10⁻⁶ cm/s. In addition, the Spontaneous locomotor activity entry in the data set on mice [2] (mice, 7.5 mg/kg i.p., 7.5 mg/kg) is “inactive; also recorded: no effect”; in the data set on mice [2] (mice, 60, 30 and 15 mg/kg i.p., 20 min recording), “statistically significant reduction in locomotor activity; also recorded: reduced activity”. In addition, the “time held on rotating rod” value in the data set with mice [3] (mice, 7.5 mg/kg i.p., 60 min before test, test length 1 min) is “about 60 s”. In addition, the “Motor coordination (rotarod, chimney)” value was “inactive; also recorded: no effect” in the data set on mice [3] (mice, 7.5 mg/kg) and “impairment” in the data set with mice [3] (mice, 15–60 mg/kg). Moreover, the “motor coordination in the rotarod test” value with mice [3] (mice, 60, 30 and 15 mg/kg i.p., 60 min before test) is “significant disturbances in motor coordination”. Moreover, the “Elevated plus maze (EPM), open arm time and entries” value in the data set on mice [4] (7.5 mg/kg) is “↑ open arm time and entries (7.5 mg/kg)—anxiolytic effect”. For the same compound, in the data set on mice [4] (7.5 mg/kg i.p.), the “EPM total number of entries into both open and closed arms” value was “remained unchanged”. Further, the “EPM percentage of open arm entries” value in the data set on mice [4] (7.5 mg/kg i.p., p < 0.01 vs control) is on record as “significant increase”. Moreover, the “EPM percentage of time spent in the open arms” value in the data set with mice [4] (7.5 mg/kg i.p., p < 0.05 vs control) is “significant increase”. For the same compound, the FST immobility time entry with mice [5] is reported as “significant decrease in immobility time; also recorded: ↓ immobility (7.5 mg/kg) antidepressant-like effect connected with serotonergic modulation”. In addition, in data set [6], the Ki was 422 ± 74 nM.
